Each block holds one compound with its values, some of them ahead of it.
Tests used:
[1] = format: physicochemical
Excerpt: The invention will now be described with reference to some non-limiting specific embodiments. The invention will first be illustrated in reference to the attached drawings to be followed by a more detailed description below. Turning to FIG. 1, there are shown two different phase diagrams (1A and 1B) of ternary systems comprising oil/water/surfactant according to the prior art. Such a ternary system forms microemulsions. As a function of the relative amounts of each of the three components one may achieve a two-phase or a mono-phase liquid concentrate comprising of the microemulsion where the boundaries of the stable phases depend on the relative concentration of each component. […] A two-phase region at equilibrium, at 35, prevails at all other concentrations of the ternary system. […] A one phase stable isotropic region exists at 65. Turning to FIG. 2, a general ternary phase diagram 80 describing the nano-sized self-assembled structured concentrates of the present invention, A rather small two-phase concentrate region 90 and a large stable one-phase at 100 region are present. A micellar concentrate of the nano-sized self-assembled structures exists at 110, i.e. there is no aqueous phase. Adding a small amount of aqueous phase results in an oil continuous phase, which is actually water in oil (W/O) region at 120A, 120B and 120C along the tree dilution lines. Addition of an increasing amount of aqueous solution results in a bi-continuous region at 130A, 130B and 130C along the three dilution lines. At the point where the amount of aqueous solution is greater than that of the oil phase there exists an aqueous continuous phase, which is actually an oil in water (O/W) region generally at 140A, 140B and 140C along the three dilution lines. Direct micelles exist only at the extreme at 150. It should be noted that along each concentration line as the concentration of the surfactant increases, the oil continuous phase may decrease is size while the bicontinuous and water continuous phases may increase in size. Turning to FIG. 3, a ternary phase diagram 170 describing another nanosized-structured concentrate of the present invention is shown. The oil phase, which is the desired solvent for achieving a single-phase system, is α-tocopherol acetate. The aqueous system comprises of water and a co-solvent—propylene glycol. As shown, a major portion of the four-component system is in one stable region 180, while only a minor portion 190 is a two-phase system. Phase diagrams, solubilization factors and efficiency of solubilization for lycopene, phytosterol and lutein in ternary systems according to lo the present invention are given in FIGS. 4–6. […] It should be noted that the ratio between each of the components of the oil phase to the surfactant is 1:3. […] As shown, upon further dilution with water, tie solubilization of lycopene drops over the dilution factor. In case the system is diluted from 67% water to 80% water, the dilution factor (from inversion) is 80/67=1.19. The solubilization on the other hand decreases by a factor of 450/312.5=1.44. This indicates structural change in the nano-sized self-assembled concentrates. Turning to FIG. 4C, the efficiency of the solubilization in the described system is represented (α). The efficiency factor, α, is defined as lycopene/oil(wt/wt)X 100. As shown, the maximum solubilization on an oil base is 0.8 wt %. […] Tuming to FIG. 4D, there is shown the solubilization capacity of the lycopene as a function of the nature of the surfactant system. As shown, for the case where the surfactant is Tween 60, the efficiency factor (solubilization based on the oil phase) is 0.8 wt %. However, this value is increased to 1.05, 1.1, 1.1 and 1.16 (wt %) for the cases where the surfactant is ethoxylated monoglycerides (EM), triglycerol monooleate (TM), sugar ester (SE), and a mixture of SE+EM, respectively. It should be noted that such efficiency factors are equivalent to a solubilization factor of up to 25 fold. […]

[2] = Solubility of lycopene in oil (oil dissolution capacity); format: physicochemical
Excerpt: The invention will now be described with reference to some non-limiting specific embodiments. The invention will first be illustrated in reference to the attached drawings to be followed by a more detailed description below. Turning to FIG. 1, there are shown two different phase diagrams (1A and 1B) of ternary systems comprising oil/water/surfactant according to the prior art. Such a ternary system forms microemulsions. As a function of the relative amounts of each of the three components one may achieve a two-phase or a mono-phase liquid concentrate comprising of the microemulsion where the boundaries of the stable phases depend on the relative concentration of each component. […] A two-phase region at equilibrium, at 35, prevails at all other concentrations of the ternary system. […] A one phase stable isotropic region exists at 65. Turning to FIG. 2, a general ternary phase diagram 80 describing the nano-sized self-assembled structured concentrates of the present invention, A rather small two-phase concentrate region 90 and a large stable one-phase at 100 region are present. A micellar concentrate of the nano-sized self-assembled structures exists at 110, i.e. there is no aqueous phase. Adding a small amount of aqueous phase results in an oil continuous phase, which is actually water in oil (W/O) region at 120A, 120B and 120C along the tree dilution lines. […]

Compound: CC1=C[C@H](O)CC(C)(C)[C@H]1/C=C/C(C)=C/C=C/C(C)=C/C=C/C=C(C)/C=C/C=C(C)/C=C/C1=C(C)C[C@@H](O)CC1(C)C [lutein]
Aqueous solution concentration at which maximum solubilization occurs (bi continuous region) [1]: 40 to 60%
Increase of solubilization capacity over aqueous or oil phase alone or with surfactant [1]: 7-20 fold
Solubilization in the oil in water (O/W) region [1]: limited solubilization

Compound: CC1=C[C@H](O)CC(C)(C)[C@H]1/C=C/C(C)=C/C=C/C(C)=C/C=C/C=C(C)/C=C/C=C(C)/C=C/C1=C(C)C[C@@H](O)CC1(C)C [free lutein]
Concentration (%) of free lutein [1]: 0.006%

Compound: lutein ester
Concentration (%) of lutein ester [1]: 0.047%

Second part, the compound after the results:

Concentration (%) of phytosterol [1]: 1.0%
Efficiency factor α, phytosterol/oil (wt/wt) x 100, maximum solubilization on an oil base [1]: 16.7 wt %
Increase of solubilization capacity over aqueous or oil phase alone or with surfactant [1]: 7-20 fold
Maximum solubilization [1]: 1.65 % (wt)
Maximum solubilization in 1 Kg of nano-sized self-assembled structured concentrate [1]: 165 mg
Solubilization decrease factor on dilution [1]: 3.6
Solubilization factors [1]: 6, 7
Solubilization in 1 Kg of concentrate after dilution [1]: 45 mg
Compound: phytosterol

Solubility of lycopene in oil [2]: ca. 0.045 wt %
Concentration (%) of lycopene [1]: 0.02%
Efficiency factor α, lycopene/oil (wt/wt) x 100, maximum solubilization on an oil base [1]: 0.8 wt %
Factor of decrease of solubilization on dilution [1]: 1.44
Increase of solubilization capacity over aqueous or oil phase alone or with surfactant [1]: 7-20 fold
Maximum solubility (solubility capacity) in 1 Kg of nano-sized self-assembled structured concentrate [1]: 450 mg
Maximum solubilization [1]: 0.45 % (wt)
Solubility capacity in 1 Kg of concentrate after dilution [1]: 312.5 mg
Solubilization factor [1]: up to 25 fold
Solubilization relative to the oil dissolution capacity [1]: up to 17.7 fold
Compound: CC(C)=CCC/C(C)=C/C=C/C(C)=C/C=C/C(C)=C/C=C/C=C(C)/C=C/C=C(C)/C=C/C=C(\C)CCC=C(C)C [lycopene]
